# Assay results published in patent US20110288036A1, “Methods for Treating or Preventing Vascular Graft Failure” (priority 2010, published 2011).
# What was measured:
# [1] = test system: mouse lung endothelial cells (MLEC); assay: MCP-1 immunoassay of MLEC conditioned medium; type: cell-based; conditions: even at high doses
# Experimental: Monocyte Chemotractic Protein-1 (MCP-1) production from mouse lung endothelial cells (MLEC) was analyzed using conditioned culture medium by Quantikine® Mouse CCL/JE/MCP-1 Immunoassay (R&D Systems) following the manufacturer's instructions. Briefly, the assay employs a quantitative sandwich enzyme immunoassay technique in which a monoclonal antibody specific for MCP-1 has been pre-coated onto a microplaste. Standards and samples are pipetted into the wells and any MCP-1 present is bound by the immobilized antibody. After washing away any unbound substances, an enzyme-linked polyclonal antibody specific for MCP-1 is added to the wells. Following a wash to remove any unbound antibody-enzyme reagent, a substrate solution is added to the wells and color develops in proportion to the amount of MCP-1 bound in the initial step. The color development is stopped and the intensity of the color is measured at 450 nm, with wavelength correction at 540 nm or 570 nm.
# [2] = test system: mouse lung endothelial cells (MLEC); assay: Murine endothelial cell proliferation by direct cell counting; type: cell-based; conditions: physiological doses
# Excerpt: Primary cultures of mouse lung endothelial cells (MLEC) were isolated as previously described (Ackah, E. et al., J. Clin Invest., 2005, 115(8): 2119-27; Muto, A. et al., J. Exp. Med., 2011, 208(3): 561-575). Mouse lung endothelial cells (MLECs) were isolated from 3-week-old wild type mice. Briefly, mice were euthanized with an overdose of ketamine/xylazine and the lungs excised, minced, and digested with 0.1% collagenase in RPMI medium. The digest was homogenized by passing multiple times through a 14-gauge needle, filtered through a 150-μm tissue sieve, and the cell suspension was plated on 0.1% gelatin-coated dishes. Endothelial cells were then isolated by immunoselection with PECAM-1- and ICAM-2-conjugated magnetic beads. After immunoselection with magnetic beads, endothelial cells were immortalized with polyoma middle T-antigen. Isolated MLEC were maintained with EBM-2/EGM-2 MV SingleQuot® Kit Supplement & Growth Factors (Lonza) containing 15% fetal bovine serum. Cell proliferation in MLEC was measured at 24 and 72 hours after MMI-0100 treatment by direct cell counting after trypsin treatment.
# [3] = test system: vein graft (inferior vena cava) intimal hyperplasia; assay: Mouse vein graft model; type: in vivo
# Experimental: 12-week-old C57BL/6 wild type mice (Harlan) were used for all experiments, as previously described (Muto, A. et al., J. Exp. Med., 2011, 208(3): 561-575, incorporated herein by reference in its entirety). […] Prior to implantation, the vein was treated ex vivo with 100 μM of MMI-0100 ([…] (SEQ ID NO: 1)) peptide solution, or control PBS solution, for 20 minutes at room temperature.
# To implant the vein graft, a midline incision was made in the abdomen of a recipient mouse and the infrarenal abdominal aorta was exposed. The abdominal aorta was temporarily occluded with atraumatic micro-clamps and a segment corresponding to the length of the vein graft was excised. The vein was sutured into the arterial circulation using 10-0 nylon in continuous fashion.
# Vein grafts were followed postoperatively using the Vevo770® High-Resolution Imaging System (VisualSonics, Toronto, Canada), with weekly measurements of graft wall thickness. At 28 days after surgery, mice were sacrificed to allow explantation of the vein graft. Tissue was either frozen with RNA stabilization reagent (Qiagen) or explanted for paraffin embedding after circulatory flushing with ice-cold PBS followed by 4% paraformaldehyde perfusion-fixation. Vein graft wall thickness, lumen diameter, and outer wall diameter (elastic lamina) were measured in elastin-stained sections using computer morphometry (ImageJ).
# Vein graft samples were fixed as described above and harvested for histology. Specimens were embedded in paraffin and cut in cross section (5 μm). Hematoxylin & Eosin, Masson trichrome, and van Gieson elastin staining were performed for all samples. Cells were cultured on gelatin-coated cover slips and fixed with methanol.
# All sections were treated for antigen retrieval using 10 mmol/L citrate buffer (pH 6.0) prior to boiling or proteinase K (20 μg/ml) treatment, at room temperature, for 10-15 minutes. Immunohistochemical detection was performed using DAB as well as NovaRED® substrate (Vector). Sections were counterstained with Mayer's Hematoxylin.
# The efficacy of MMI-0100 ([…]; SEQ ID NO: 1) in treating intimal hyperplasia in vivo was examined using a mouse model of vein bypass graft. […] The IVC was soaked in a 100 μM solution of MMI-0100 ([…]; SEQ ID NO: 1) at room temperature for 20 minutes prior to implantation into a host (C57BL/6J) mouse to bypass the infrarenal aorta. Five treated and six untreated veins were transplanted for a total of 11 transplanted animals. Vein graft wall thickness was determined using a […] ultrasound imaging system at each week.
# In order to further confirm the inhibitory effects of MMI-0100 ([…]; SEQ ID NO: 1) on intimal hyperplasia development in an […] model, the effect of MMI-0100 ([…]; SEQ ID NO: 1) was investigated in a follow-up study using a mouse model of vein graft adaptation. To this end, vein grafts were treated with PBS or 100 μM of MMI-0100 ([…]; SEQ ID NO: 1) for 20 minutes prior to implantation; the thickness of the vein grafts then was examined weekly with ultrasound.
# [4] = Observation of toxicity, tissue erosion or necrosis
# [5] = test system: human smooth muscle cell (SMC); assay: Phase contrast morphology, smooth muscle cells; type: cell-based; conditions: 24 hours treatment, vs control cells
# Experimental: In order to determine the effect of pharmacological doses of MMI-0100 ([…]; SEQ ID NO: 1) on human endothelial cell (EC) and smooth muscle cell (SMC) proliferation, human EC and SMC cultures were treated with three concentrations (0.25 mM, 0.5 mM, and 1 mM) of MMI-0100 ([…] (SEQ ID NO: 1)) following pre-treatment with TNF-α.
sequence,measurement,setting,value
YARAAARQARAKALARQLGVAA [MMI-0100],MCP-1 production,[1],"did not stimulate MCP-1 production, even at high doses"
same,murine EC proliferation,[2],did not induce significant murine EC proliferation
same,reduced wall thickness compared to control grafts (histological staining),"[3]; follow-up study, 100 μM 20 minutes ex vivo, 4 weeks",72%
same,F4/80-positive cells infiltrating into vein grafts,"[3]; follow-up study, 100 μM 20 minutes ex vivo, 4 weeks, immunohistochemistry",fewer F4/80-positive cells
same,vein graft wall thickness ratio,"[3]; follow-up study, 100 μM 20 minutes ex vivo, 4 weeks, ultrasound, control 4.7-fold",2.6 fold
same,"vein graft wall thickness, weekly ultrasound","[3]; follow-up study, 100 μM 20 minutes ex vivo, weeks 1-4",diminished wall thickness at all postoperative time points
same,vessel wall thickness relative to originally harvested IVC,"[3]; graft soaked 100 μM 20 minutes, 4 weeks, ultrasound, control almost five times",about 2.5 times
same,"evidence of toxicity, tissue erosion, or necrosis",[4],"did not show any evidence of toxicity, tissue erosion, or necrosis"
same,morphological changes of SMC,[5],no obvious morphological changes
